Assay results: paper PMC6934184, “Selective DNA-PKcs inhibition extends the therapeutic index of localized radiotherapy and chemotherapy” (The Journal of Clinical Investigation, 2019)

Target: T1, CSNK1G2 (CK1 gamma 2) (Homo sapiens, UniProt P78368)
T1 construct: purchased Thermo Fisher Scientific (Life Technologies) SelectScreen
Assay: SelectScreen Z'LYTE
Type: biochemical
Outline: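 Percent values come from Thermo SelectScreen profiling of NU5455, combining activity and binding assays. CSF1R was run in Z'LYTE format at Km app ATP, and CAMK1 in Adapta format with ATP listed at 10.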

T1 sequence (P78368 whole entry): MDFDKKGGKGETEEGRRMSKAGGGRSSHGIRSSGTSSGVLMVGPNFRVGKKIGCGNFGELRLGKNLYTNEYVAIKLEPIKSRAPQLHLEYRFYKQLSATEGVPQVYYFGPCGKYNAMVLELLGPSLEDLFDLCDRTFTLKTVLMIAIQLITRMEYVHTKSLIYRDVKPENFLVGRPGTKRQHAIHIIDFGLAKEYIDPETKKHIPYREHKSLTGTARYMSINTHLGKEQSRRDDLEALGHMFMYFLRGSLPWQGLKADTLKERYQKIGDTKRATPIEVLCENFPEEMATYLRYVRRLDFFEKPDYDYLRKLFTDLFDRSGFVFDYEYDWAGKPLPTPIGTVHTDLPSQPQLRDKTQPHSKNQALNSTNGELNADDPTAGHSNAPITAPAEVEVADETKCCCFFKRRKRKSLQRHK

CN(C(=O)CN1CCOCC1)c1ccc2sc3c(-c4cccc5c(=O)cc(N6CC7CCC(C6)O7)oc45)cccc3c2c1 [NU5455]
inhibition at 1 µM: -9.3%
